In patent US6608087B1, “Gyrase inhibitors and uses thereof” (Vertex Pharmaceuticals Incorporated, priority 2000, dated 2003):

What follows are compounds tested against E. coli gyrase A2B2 (Escherichia coli, UniProt P0AES6) (assay: ATPase assay, E. coli gyrase A2B2 (coupled pyruvate kinase/lactate dehydrogenase)). Details: 30° C., 0.9 mM ATP, 40 nM enzyme, read-out: Activity against E. coli gyrase (Ki).
Assay type: biochemical
Experimental: The ATP hydrolysis activity of DNA gyrase was measured by coupling the production of ADP through pyruvate kinase/lactate dehydrogenase to the oxidation of NADH. This method has been described previously. (Tamura and Gellert, 1990, J. Biol. Chem.265, 21342-21349).
ATPase assays were carried out at 30° C. in buffered solutions containing 100 mM TRIS pH 7.6, 1.5 mM MgCl2, and 150 mM KCl. The coupling system contained (final concentrations) 2.5 mM phosphoenol pyruvate, 200 μM nicotinamide adenine dinucleotide (NADH), 1 mM DTT, 30 ug/ml pyruvate kinase, and 10 ug/ml lactate dehydrogenase. 40 nM enzyme (374 kDa Gyr A2B2 from E coli) and a DMSO solution of the inhibitor to a final concentration of 4% were added and the reaction mixture allowed to incubate for 10 minutes at 30° C. The reaction was then started by the addition of ATP to a final concentration of 0.9 mM and the rate of NADH disappearance at 340 nm, measured over the course of 10 minutes. Ki values were determined from rate versus. inhibitor concentration profiles.

How did the Ki turn out when `COC(=O)NCc1cc(-c2sc(-c3ccccc3)nc2N2CCN(Cc3ccccc3)CC2)n[nH]1` [IA-18] was run?
Its Ki is 500 to 1500 nM.

For `CCOC(=O)c1cc(-c2sc(-c3ccccc3)nc2CN(CC)CC)n[nH]1` [IA-69], which Ki is on record?
Its Ki is greater than 1500 nM.

With `CCOC(=O)c1cc(-c2cnn(-c3cccc(Cl)c3)c2C)n[nH]1` [ID-28, 1′-(3-Chloro-phenyl)-5′-methyl-1H,1′H-[3,4′]bipyrazolyl-5-carboxylic Acid Ethyl Ester] as the compound, how does the Ki read?
The Ki was greater than 1500 nM.

Which Ki does the source give for `COC(=O)NCc1cc(-c2sc(-c3ccccc3)nc2N2CCCCC2C)n[nH]1` (centres unmarked) [IA-30] here?
Its Ki is less than 500 nM.

`CC(C)OC(=O)NCc1cc(-c2sc(-c3ccccc3)nc2-c2ccccc2)n[nH]1` [IA-46] was tested. Which Ki did it give?
The Ki was greater than 1500 nM.

`CCOC(=O)c1cc(-c2sc(-c3ccccc3)nc2CN2CCOCC2)n[nH]1` [IA-66] was tested. Which Ki did it give?
The Ki was greater than 1500 nM.

Which Ki does the source give for `COC(=O)NCc1cc(-c2sc(-c3ccccc3)nc2N2CCNCC2)n[nH]1` [IA-37] here?
The Ki was greater than 1500 nM.

How did the Ki turn out when `CCOC(=O)c1cc(-c2sc(-c3ccccc3)nc2CN2CCNCC2)n[nH]1` [IA-67] was run?
Its Ki is 500 to 1500 nM.
